Patent publication US20210323977A1, “PYRROLIDINYL AMIDE COMPOUNDS FOR THE TREATMENT OF AUTOIMMUNE DISEASE” (Hoffmann-La Roche Inc., priority 2018, published 2021)

Each compound was assayed against T1, human TLR8 (Homo sapiens, UniProt Q9NR97) (assay: HEK293-Blue-hTLR-8 cells assay). Settings: HEK293-Blue-hTLR8 cells, SEAP reporter, R848 stimulation, 20 hrs.
T1 sequence (Q9NR97 27-1041): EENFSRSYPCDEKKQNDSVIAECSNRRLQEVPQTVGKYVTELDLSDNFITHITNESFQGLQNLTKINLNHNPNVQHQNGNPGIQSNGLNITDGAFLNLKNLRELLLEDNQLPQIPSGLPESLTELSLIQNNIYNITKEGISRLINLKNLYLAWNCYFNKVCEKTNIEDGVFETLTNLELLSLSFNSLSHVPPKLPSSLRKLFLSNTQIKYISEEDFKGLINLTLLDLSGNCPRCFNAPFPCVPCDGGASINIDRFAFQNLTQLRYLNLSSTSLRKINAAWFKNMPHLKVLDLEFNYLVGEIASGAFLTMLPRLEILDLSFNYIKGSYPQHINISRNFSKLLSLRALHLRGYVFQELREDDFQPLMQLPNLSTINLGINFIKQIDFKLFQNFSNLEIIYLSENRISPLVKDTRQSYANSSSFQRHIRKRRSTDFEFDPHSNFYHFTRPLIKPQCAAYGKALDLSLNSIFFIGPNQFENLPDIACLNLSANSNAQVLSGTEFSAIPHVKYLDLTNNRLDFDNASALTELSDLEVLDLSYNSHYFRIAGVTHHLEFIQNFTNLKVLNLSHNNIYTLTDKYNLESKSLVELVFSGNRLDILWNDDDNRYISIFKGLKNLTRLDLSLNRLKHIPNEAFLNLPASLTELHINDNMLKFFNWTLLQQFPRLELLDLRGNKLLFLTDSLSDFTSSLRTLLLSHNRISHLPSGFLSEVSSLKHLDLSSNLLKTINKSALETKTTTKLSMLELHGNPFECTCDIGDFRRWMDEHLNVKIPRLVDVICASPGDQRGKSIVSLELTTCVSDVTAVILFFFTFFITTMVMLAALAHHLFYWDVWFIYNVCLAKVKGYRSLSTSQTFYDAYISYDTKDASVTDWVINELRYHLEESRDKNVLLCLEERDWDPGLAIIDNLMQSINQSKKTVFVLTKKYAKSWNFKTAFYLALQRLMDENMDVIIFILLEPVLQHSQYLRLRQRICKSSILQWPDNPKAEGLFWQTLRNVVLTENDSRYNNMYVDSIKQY
Assay type: cell-based
Description: HEK293-Blue-hTLR-8 Cells Assay:
A stable HEK293-Blue-hTLR-8 cell line was purchased from InvivoGen (Cat. #: hkb-htlr8, San Diego, Calif., USA). These cells were originally designed for studying the stimulation of human TLR8 by monitoring the activation of NF-κB. A SEAP (secreted embryonic alkaline phosphatase) reporter gene was placed under the control of the IFN-β minimal promoter fused to five NF-κB and AP-1-binding sites. The SEAP was induced by activating NF-κB and AP-1 via stimulating HEK-Blue hTLR8 cells with TLR8 ligands. Therefore the reporter expression was declined by TLR8 antagonist under the stimulation of a ligand, such as R848, for incubation of 20 hrs. The cell culture supernatant SEAP reporter activity was determined using QUANTI-Blue™ kit (Cat. #: rep-qb1, Invivogen, San Diego, Ca, USA) at a wavelength of 640 nm, a detection medium that turns purple or blue in the presence of alkaline phosphatase.
HEK293-Blue-hTLR8 cells were incubated at a density of 250,000-450,000 cells/mL in a volume of 170 μL in a 96-well plate in Dulbecco's Modified Eagle's medium (DMEM) containing 4.5 g/L glucose, 50 U/mL penicillin, […], […], 2 mM L-glutamine, 10% (v/v) heat-inactivated fetal bovine serum with addition of 20 μL test compound in a serial dilution in the presence of final DMSO at 1% and 10 sL of 60 uM R848 in above DMEM, perform incubation under 37° C. in a CO2 incubator for 20 hrs. Then 20 μL of the supernatant from each well was incubated with 180 sL Quanti-blue substrate solution at 37° C. for 2 hrs and the absorbance was read at 620˜655 nm using a spectrophotometer. The signalling pathway that TLR8 activation leads to downstream NF-κB activation has been widely accepted, and therefore similar reporter assay was modified for evaluating TLR8 antagonist.
For `N#Cc1ccc(N2CC(C(=O)NC[C@@H]3CNCCO3)C3(CC3)C2)c2nccnc12` (single isomer, unassigned) [Example 71A], the IC50 was 75 nM.
Compound `C[C@H]1CN(c2ccc(C#N)c3ncccc23)C[C@@H]1C(=O)NC1CCN(C)CC1` [Example 16, (3R,4R)-1-(8-cyano-5-quinolyl)-4-methyl-N-(1-methyl-4-piperidyl)pyrrolidine-3-carboxamide] has an IC50 of 72 nM.
`N#Cc1ccc(N2C[C@@H](C(F)(F)F)[C@H](C(=O)N[C@H]3CNC[C@H]3F)C2)c2cccnc12` [Example 47, Trans-1-(8-cyano-5-quinolyl)-N-[(3S,4R)-4-fluoropyrrolidin-3-yl]-4-(trifluoromethyl)pyrrolidine-3-carboxamide] gave an IC50 of 404 nM.
`CN(C)CC1CC(NC(=O)C2CN(c3ccc(C(F)(F)F)c4nccnc34)CC23CC3)C1` (centres unmarked) [Example 26, N-[3-[(dimethylamino)methyl]cyclobutyl]-5-[8-(trifluoromethyl)quinoxalin-5-yl]-5-azaspiro[2.4]heptane-7-carboxamide] showed an IC50 of 44 nM.
In the case of `CN1CCC(NC(=O)[C@H]2CN(c3ccc(C#N)c4nccnc34)C[C@@H]2C(F)(F)F)CC1` [Example 1, (3R,4R)-1-(8-cyanoquinoxalin-5-yl)-N-(1-methyl-4-piperidyl)-4-(trifluoromethyl) pyrrolidine-3-carboxamide], the IC50 is reported as 13 nM.
In the case of `N#Cc1ccc(N2C[C@H](C(=O)NC3CCN(C4CCNCC4)CC3)[C@@H](C(F)(F)F)C2)c2nccnc12` [Example 35, (3R,4R)-1-(8-Cyanoquinoxalin-5-yl)-N-[1-(4-piperidyl)-4-piperidyl]-4-(trifluoromethyl)pyrrolidine-3-carboxamide], the IC50 is reported as 38 nM.
`CN1CCCC(CNC(=O)C2CN(c3ccc(C#N)c4ncccc34)CC23CC3)C1` (centres unmarked) [Example 51, 5-(8-Cyano-5-quinolyl)-N-[(1-methyl-3-piperidyl)methyl]-5-azaspiro[2.4]heptane-7-carboxamide] was tested, and the IC50 was 398 nM.
For `CN1CCC(NC(=O)[C@@H]2CN(c3ccc(C#N)c4ncccc34)C[C@H]2C2CC2)CC1` (relative stereo) [Example 14, Trans-1-(8-cyano-5-quinolyl)-4-cyclopropyl-N-(1-methyl-4-piperidyl)pyrrolidine-3-carboxamide], the IC50 was 193 nM.
For `CN1CCC(NC(=O)[C@H]2CN(c3ccc(C(F)(F)F)c4nccnc34)C[C@@H]2C(F)(F)F)CC1` [Example 2, (3R,4R)—N-(1-methyl-4-piperidyl)-4-(trifluoromethyl)-1-[8-(trifluoromethyl)quinoxalin-5-yl]pyrrolidine-3-carboxamide], the IC50 was 18 nM.
With `CN1CCC(NC(=O)[C@@H]2CN(c3ccc(C#N)c4ncccc34)C[C@H]2C(F)(F)F)CC1` (relative stereo) [Example 17, Trans-1-(8-cyano-5-quinolyl)-N-(1-methyl-4-piperidyl)-4-(trifluoromethyl)pyrrolidine-3-carboxamide] the IC50 was 66 nM.
For `C[C@@H]1CN(c2ccc(C#N)c3ncccc23)C[C@H]1C(=O)NC1CCN(C)CC1` (relative stereo) [Example 28], the IC50 was 52 nM.
For `O=C(NC1C2CCC1CNC2)C1CN(c2ccc(C(F)(F)F)c3nccnc23)CC12CC2` (centres unmarked) [Example 12, N-(3-azabicyclo[3.2.1]octan-8-yl)-5-[8-(trifluoromethyl)quinoxalin-5-yl]-5-azaspiro[2.4]heptane-7-carboxamide], the IC50 was 227 nM.
Work on `C[C@H]1CN(c2ccc(C#N)c3nccnc23)C[C@@H]1C(=O)NC1CCN(C2CCNCC2)CC1` [Example 60, (3R,4R)-1-(8-cyanoquinoxalin-5-yl)-4-methyl-N-[1-(4-piperidyl)-4-piperidyl]pyrrolidine-3-carboxamide] yielded an IC50 of 48 nM.
Compound `C[C@H]1CN(c2ccc(C#N)c3nccnc23)C[C@@H]1C(=O)NC1CCN(C)CC1` [Example 3, (3R,4R)-1-(8-cyanoquinoxalin-5-yl)-4-methyl-N-(1-methyl-4-piperidyl)pyrrolidine-3-carboxamide] has an IC50 of 5 nM.
Work on `C[C@H]1CN(c2ccc(C#N)n3nccc23)C[C@@H]1C(=O)NC1CCN(C)CC1` [Example 44, (3R,4R)-1-(7-cyanopyrazolo[1,5-a]pyridin-4-yl)-4-methyl-N-(1-methyl-4 piperidyl)pyrrolidine-3-carboxamide] yielded an IC50 of 404 nM.
For `CN1CCC(NC(=O)C2CN(c3ccc(C#N)c4nccnc34)CC23CC3)CC1` (single isomer, unassigned) [Example 7B, 5-(8-Cyanoquinoxalin-5-yl)-N-(1-methyl-4-piperidyl)-5-azaspiro[2.4]heptane-7-carboxamide], the IC50 was 26 nM.
`NC1CC(NC(=O)C2CN(c3ccc(C(F)(F)F)c4nccnc34)CC23CC3)C1` (centres unmarked) [Example 38, N-(3-Aminocyclobutyl)-5-[8-(trifluoromethyl)quinoxalin-5-yl]-5-azaspiro[2.4]heptane-7-carboxamide] gave an IC50 of 172 nM.
`C[C@@H]1CN(c2ccc(C#N)c3ncccc23)C[C@H]1C(=O)NC1CCCNCC1` (single isomer, unassigned) [Example 52A, Trans-N-(azepan-4-yl)-1-(8-cyano-5-quinolyl)-4-methyl-pyrrolidine-3-carboxamide] gave an IC50 of 225 nM.
In the case of `O=C(NC1CC2CNCC2C1)C1CN(c2ccc(C(F)(F)F)c3nccnc23)CC12CC2` (centres unmarked) [Example 21, N-(1,2,3,3a,4,5,6,6a-octahydrocyclopenta[c]pyrrol-5-yl)-5-[8-(trifluoromethyl)quinoxalin-5-yl]-5-azaspiro[2.4]heptane-7-carboxamide], the IC50 is reported as 77 nM.
`C[C@H]1CN(c2ccc([N+](=O)[O-])c3ncccc23)C[C@@H]1C(=O)NC1CCN(C)CC1` [Example 27, (3R,4R)-4-Methyl-N-(1-methyl-4-piperidyl)-1-(8-nitro-5-quinolyl)pyrrolidine-3-carboxamide] gave an IC50 of 52 nM.
Work on `NC1CC2(C1)CC(NC(=O)C1CN(c3ccc(C(F)(F)F)c4nccnc34)CC13CC3)C2` (centres unmarked) [Example 22, N-(6-aminospiro[3.3]heptan-2-yl)-5-[8-(trifluoromethyl)quinoxalin-5-yl]-5-azaspiro[2.4]heptane-7-carboxamide] yielded an IC50 of 65 nM.
Work on `O=C(NC1CC2CCC(C1)N2)C1CN(c2ccc(C(F)(F)F)c3nccnc23)CC12CC2` (centres unmarked) [Example 23, N-(8-azabicyclo[3.2.1]octan-3-yl)-5-[8-(trifluoromethyl)quinoxalin-5-yl]-5-azaspiro[2.4]heptane-7-carboxamide] yielded an IC50 of 243 nM.
`N#Cc1ccc(N2CC(C(=O)NC[C@@H]3CNCCO3)C3(CC3)C2)c2nccnc12` (single isomer, unassigned) [Example 71B] gave an IC50 of 134 nM.
`CC[C@@H]1CN(c2ccc(C#N)c3ncccc23)C[C@H]1C(=O)NC1CCN(C)CC1` (relative stereo) [Example 29, Trans-1-(8-cyano-5-quinolyl)-4-ethyl-N-(1-methyl-4-piperidyl)pyrrolidine-3-carboxamide] showed an IC50 of 96 nM.
`C[C@@H]1CN(c2ccc(C#N)c3ncccc23)C[C@H]1C(=O)NC1CCCNCC1` (single isomer, unassigned) [Example 52B, Trans-N-(azepan-4-yl)-1-(8-cyano-5-quinolyl)-4-methyl-pyrrolidine-3-carboxamide] was tested, and the IC50 was 274 nM.
`O=C(NC1C2CCCC1CNC2)C1CN(c2ccc(C(F)(F)F)c3nccnc23)CC12CC2` (centres unmarked) [Example 8, N-(3-azabicyclo[3.3.1]nonan-9-yl)-5-[8-(trifluoromethyl)quinoxalin-5-yl]-5-azaspiro[2.4]heptane-7-carboxamide] was tested, and the IC50 was 216 nM.
